Target: T1, delF508-CFTR-HRP (Homo sapiens, UniProt P13569, DEL508-508)
T1 construct: expressed in transfected cells
Test: Measurement of delF508-CFTR-HRP surface expression in CFBE41o- cells (HRP luminescence);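 on DelF508-CFTR-HRP Amax %: percent efficacy relative to a reference CFTR corrector compound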
Format: cell-based
Conditions: for EC50: mean of at least two replicates
Excerpt: Measurement of delF508-CFTR-HRP Surface Expression in CFBE41o-Cells
This assay quantifies the cell surface expressions of the mutant CFTR channel using an extracellular HRP tag.
A cellular assay was developed to measure surface expression of horseradish peroxidase (HRP) tagged delF508-CFTR in the human bronchial epithelial immortalized CFBE41o-cell line (Phuan, P. W., et al, (2014) Molecular Pharmacology 86:42-51). Specifically, the HRP sequence was inserted into the fourth extracellular loop of delF508-CFTR and stably expressed in CFBE41o-cells. Cells were seeded in 384 well plate at a density of 5000 cells/well and incubated at 37° C. for 12 to 24 hours in medium (Gibco MEM #11095, 10% FBS, 10 mM HEPES, […], 200 μg/mL G418, 3 μg/mL Puromycin). The delF508-CFTR-HRP expression was induced with 500 ng/mL doxycycline (Sigma D-9891, dissolved in H2O and sterile filtered) in medium and the cells were incubated at 37° C. for 48 h. Old medium was removed and fresh medium was added containing 500 ng/mL doxycycline and unknown test compound at required test concentration in DMSO, not exceeding 0.5% final DMSO concentration. The highest concentration tested was 10 μM with a 10-point concentration response curve using a 3-fold dilution. After addition of compounds, the cells were incubated for 24 h at 37° C. On the final day, cells were washed four times in PBS containing 1 mM MgCl2 and 0.1 mM CaCl2. HRP-Substrate (SuperSignal ELISA Pico, Fisher #37069) 20 μl/well was added and the luminescence signal was determined (Viewlux, Perkin Elmer). Light was emitted upon addition of exogenous HRP-Substrate only when delF508-CFTR-HRP reached the cell surface and the HRP tag was accessible to the HRP-Substrate (note: HRP-Substrate cannot cross the lipid bilayer to reach delF508-CFTR-HRP misfolded within the cell).
The median activity for the lowest concentration of the compounds on each assay plate was calculated and this value was used to normalize the signal for each well on the respective plate. Three replicates at each concentrations for every compound were run to determine one EC50. The median value was determined and used to calculate compound activities as described below. Effective half maximal values (EC50) were calculated for each compound by performing logistic regression on measured dose-response data points using the equation: […]
where “Y” is the observed activity, “Bottom” is the lowest observed value, “Top” is the highest observed value, and the “Hill coefficient” gives the largest absolute value of the slope. The curve fitting is carried out by a curve fitting program implemented at GNF using Matlab (Mathworks). The dose response curves also were used to calculate Fold Change (FC) using the equation: […]
Compound efficacy relative to the reference compound 3-(6-(1-(2,2-difluorobenzo[d][1,3]dioxol-5-yl)cyclopropane-1-carboxamido)-3-methylpyridin-2-yl)benzoic acid was determined using the following formula: […]

T1 sequence (P13569 with tags, fused parts or gaps DEL508-508): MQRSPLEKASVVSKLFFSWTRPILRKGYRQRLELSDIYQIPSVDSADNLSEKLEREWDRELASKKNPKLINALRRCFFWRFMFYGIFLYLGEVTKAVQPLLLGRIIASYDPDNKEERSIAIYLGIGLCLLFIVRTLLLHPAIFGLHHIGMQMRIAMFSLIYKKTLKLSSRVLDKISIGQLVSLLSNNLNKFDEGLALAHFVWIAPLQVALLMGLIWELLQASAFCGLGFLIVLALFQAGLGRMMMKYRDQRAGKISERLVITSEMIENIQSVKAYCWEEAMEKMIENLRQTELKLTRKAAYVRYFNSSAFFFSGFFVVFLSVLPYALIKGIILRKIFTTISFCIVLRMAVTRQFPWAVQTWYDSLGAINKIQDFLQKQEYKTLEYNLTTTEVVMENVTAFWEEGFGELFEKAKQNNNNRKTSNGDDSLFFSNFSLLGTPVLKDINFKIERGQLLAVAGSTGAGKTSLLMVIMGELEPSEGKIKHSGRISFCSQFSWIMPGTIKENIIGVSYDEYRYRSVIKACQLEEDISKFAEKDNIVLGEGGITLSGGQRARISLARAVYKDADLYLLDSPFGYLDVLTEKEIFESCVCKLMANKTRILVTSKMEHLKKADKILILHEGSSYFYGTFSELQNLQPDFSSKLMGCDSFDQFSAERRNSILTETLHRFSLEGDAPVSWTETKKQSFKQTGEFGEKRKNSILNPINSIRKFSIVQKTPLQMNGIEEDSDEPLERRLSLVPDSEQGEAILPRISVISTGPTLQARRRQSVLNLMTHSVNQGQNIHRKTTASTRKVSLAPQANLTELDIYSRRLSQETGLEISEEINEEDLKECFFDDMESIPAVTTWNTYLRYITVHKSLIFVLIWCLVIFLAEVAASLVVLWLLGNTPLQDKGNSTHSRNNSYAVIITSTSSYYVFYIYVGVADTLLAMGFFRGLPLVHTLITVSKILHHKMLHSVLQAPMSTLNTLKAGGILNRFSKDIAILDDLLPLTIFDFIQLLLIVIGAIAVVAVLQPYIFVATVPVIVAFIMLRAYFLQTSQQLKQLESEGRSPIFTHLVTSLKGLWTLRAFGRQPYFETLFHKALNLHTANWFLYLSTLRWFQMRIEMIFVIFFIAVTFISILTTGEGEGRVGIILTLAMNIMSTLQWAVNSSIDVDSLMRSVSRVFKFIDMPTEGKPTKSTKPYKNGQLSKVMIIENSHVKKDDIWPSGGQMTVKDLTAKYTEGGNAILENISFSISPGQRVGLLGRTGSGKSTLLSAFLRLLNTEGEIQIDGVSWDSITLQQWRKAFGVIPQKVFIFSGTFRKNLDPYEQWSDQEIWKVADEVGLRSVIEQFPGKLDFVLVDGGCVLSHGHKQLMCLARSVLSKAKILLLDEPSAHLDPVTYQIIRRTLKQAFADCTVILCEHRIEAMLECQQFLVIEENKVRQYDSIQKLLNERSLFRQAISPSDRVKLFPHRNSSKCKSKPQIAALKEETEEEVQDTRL

DelF508-CFTR-HRP Amax % [%] | EC50 [nM] | Emax (CFBE41o-, read-out: DelF508-CFTR-HRP Amax %) [%] | SMILES
65 | 4180 | – | Cc1ccc(C2CC2C(F)(F)F)c(OC2(C(=O)NS(=O)(=O)c3cccc(N)n3)CC2)c1 (single isomer, unassigned) [Example 1-3-1, N-((6-aminopyridin-2-yl)sulfonyl)-1-(5-methyl-2-(2-(trifluoromethyl)cyclopropyl)phenoxy)cyclopropane-1-carboxamide]
260 | 2990 | – | Cc1ccc(C2CC2C(F)(F)F)c(OC2(C(=O)NS(=O)(=O)c3cccc(N)n3)CC2)c1 (single isomer, unassigned) [Example 1-3-2, N-((6-aminopyridin-2-yl)sulfonyl)-1-(5-methyl-2-(2-(trifluoromethyl)cyclopropyl)phenoxy)cyclopropane-1-carboxamide]
283 | 1900 | – | Cc1ccc(C2CCCCC2)c(OC2(C(=O)NS(=O)(=O)c3cccc(N4CCC5(CCCC5N)CC4)n3)CC2)c1 (single isomer, unassigned) [Example 2-32-2, N-((6-(1-Amino-8-azaspiro[4.5]decan-8-yl)pyridin-2-yl)sulfonyl)-1-(2-cyclohexyl-5-methylphenoxy)cyclopropanecarboxamide]
295 | 3620 | – | Cc1ccc(C2CCC(C)(C)OC2)c(OC2(C(=O)NS(=O)(=O)c3cccc(N4CC[C@H](O)C4)n3)CC2)c1 (single isomer, unassigned) [Example 4-24-1]
249 | 3000 | – | Cc1ccc(C2CCC(C)(C)OC2)c(OC2(C(=O)NS(=O)(=O)c3cccc(N4CC[C@H](O)C4)n3)CC2)c1 (single isomer, unassigned) [Example 4-24-2]
– | 880 | 382 | C[C@@]1(O)CCN(c2cccc(S(=O)(=O)NC(=O)C3(Oc4cc(Cl)ccc4C4CC5(CCC5)C4)CC3)n2)C1 (single isomer, unassigned) [Example 7-2-2]
535.5 | 1000 | – | CC1(O)CCCN(c2cccc(S(=O)(=O)NC(=O)C3(Oc4cc(Cl)ccc4C4CC5(CCC5)C4)CC3)n2)C1 (single isomer, unassigned) [Example 7-8-1, 1-(5-chloro-2-(spiro[3.3]heptan-2-yl)phenoxy)-N-((6-(3-hydroxy-3-methylpiperidin-1-yl)pyridin-2-yl)sulfonyl)cyclopropanecarboxamide]
248.0 | 1020 | – | CC1(O)CCCN(c2cccc(S(=O)(=O)NC(=O)C3(Oc4cc(Cl)ccc4C4CC5(CCC5)C4)CC3)n2)C1 (single isomer, unassigned) [Example 7-8-2, 1-(5-chloro-2-(spiro[3.3]heptan-2-yl)phenoxy)-N-((6-(3-hydroxy-3-methylpiperidin-1-yl)pyridin-2-yl)sulfonyl)cyclopropanecarboxamide]
493.9 | 900 | – | CC1(O)CCN(c2cccc(S(=O)(=O)NC(=O)C3(Oc4cc(Cl)ccc4C4CC5(CCC5)C4)CCCC3)n2)C1 (single isomer, unassigned) [Example 7-18-1, 1-(5-Chloro-2-(spiro[3.3]heptan-2-yl)phenoxy)-N-((6-(3-hydroxy-3-methylpyrrolidin-1-yl)pyridin-2-yl)sulfonyl)cyclopentane-1-carboxamide]
371.9 | 1670 | – | CC1(O)CCN(c2cccc(S(=O)(=O)NC(=O)C3(Oc4cc(Cl)ccc4C4CC5(CCC5)C4)CCCC3)n2)C1 (single isomer, unassigned) [Example 7-18-2, 1-(5-Chloro-2-(spiro[3.3]heptan-2-yl)phenoxy)-N-((6-(3-hydroxy-3-methylpyrrolidin-1-yl)pyridin-2-yl)sulfonyl)cyclopentane-1-carboxamide]
93.6 | 960 | – | CC(C)(C)C1CCC(Nc2ccc(Cl)cc2OC2(C(=O)NS(=O)(=O)c3cccc(N4CC[C@H](O)C4)n3)CC2)CC1 (single isomer, unassigned) [Example 9-5-1]
